Columns and labels:
[1] = test system: rat mesenchymal stem cells; assay: ALP activity in mesenchymal stem cells; assay type: cell-based; details: vs untreated control; day 7
Experimental: FIG. 10. ALP activity in untreated (control) rat mesenchymal stem cells and cells treated with BMP-2 or 6-Bnz-cAMP. A-BMP-2 peptide; E-6-Bnz-cAMP; F-Control. […] ALP activities of mesenchymal stem cells were induced by 6-Bnz-cAMP at day 7.
Cell adhesion, proliferation, and differentiation studies: Rabbit MSCs are plated onto PLAGA matrices at a plating density of 1×10^4 cells/cm^2 and cultured in standard basal medium. Four experimental groups are tested: (1) untreated cells, (2) 6-Bnz-cAMP treated cells, (3) BMP-2 treated cells, and (4) 6-Bnz-cAMP and BMP-2 treated cells. […] Initial cell adhesion is determined at 1 h, 3 h, 12 h, and 24 h. Cell proliferation and cell differentiation are determined at 1, 7, 14, and 21 days. Calcium deposition and ALP activity is also measured at days 3, 7, 14, and 21 in untreated cells compared to cells treated with BMP-2 or 6-Bnz-cAMP (FIGS. 9 and 10). […] For the cell adhesion assay, attached cells are quantified by crystal violet stain, a method routinely used to measure the initial cell adhesion. Cell proliferation is measured using a commercially available proliferation assay kit, MTS (Promega). For alkaline phosphatase (ALP) activity, the early markers of osteoblast differentiation are determined with a commercially availia ALP assay kit (Bio-rad). […]

[2] = test system: MC3T3-E1 cells; assay: Matrix mineralization, quantitative calcium assay; assay type: cell-based; details: 100 μM in mineralization medium vs mineralization medium alone; day 21
Experimental: FIG. 6. 6-Bnz-cAMP promotes osteoblastic mineralization by day 21. After 20 days of culture of osteoblast-like MC3T3-E1 cells in mineralization medium with or without 6-Bnz-cAMP, quantitative calcium levels were determined. […] To facilitate the comparison of different experimental settings, the level of calcium measurement of the “Control” cells cultured in the regular growth medium was set to one relative unit.
MC3T3-E1 cells were grown in mineralization media (The minimal media described in Example 1 with, 1% of antibiotic (100 U/ml penicillin G and […] streptomycin), 3 mM β-glycerolphosphate, and 10 μg/ml ascorbic acid). 6-Bnz-cAMP was added to the culture medium to a final concentration of 100 μM for experiments; mineralization media only was used for positive controls. For the qualitative determination of calcified matrix mineralization, at day 21, media were removed and cells were rinsed with calcium-free PBS for 3 times. The precipitated calcium of mineralized matrix was dissolved overnight in 0.6N hydrochloric acid at 4° C. The extracted calcium was then measured with a calcium assay kit (Calcium Liquicolor, Stanbio Laboratory, Boerne, Tex.) according to the manufacturer's instructions. The absorbance values were normalized to cellular DNA.

[3] = test system: MC3T3-E1 cells; assay: ALP activity assay; assay type: cell-based; details: 100 μM
Experimental: FIG. 5. 6-Bnz-cAMP increases ALP activities at day 7 and 14. […] To facilitate the comparison of different experimental settings, the ALP activity of the cells cultured in the regular growth medium at Day 7 was set to one relative unit.
MC3T3-E1 cells were grown in mineralization media. 6-Bnz-cAMP was added to the culture medium to a final concentration of 100 μM for experiments; mineralization media only was used for positive controls. Osteoblast-associated markers were quantitated at days 7 and 14. Markers include increased alkaline phosphatas (ALP) activity (FIG. 5) and calcium precipitation in MC3T3-E1 cells (FIG. 6). 6-Bnz-cAMP toxicity was assessed at days 7, 14, and 21 in cells treated with 100 micromolar 6-Bnz-cAMP compared to untreated cells. Trypan blue staining was used to visualize cells (FIG. 7).
ALP activities were measured using ALP assay kit according to the manufacturer's instructions (Bio-Rad, Hercules, Calif.). Briefly, at day 7 and 14, cells were collected and washed 4 times with PBS prior to the ALP activity assay. Cells were then lysed with 0.1% TX-100. Cell lysates were collected and mixed with the ALP substrate solution for 1 h at 37° C. incubation. The colorimetric change due to the presence of ALP activity was measured by a spectrophotometric plate reader at 405 nm. The absorbance values were then normalized to cellular DNA.

[4] = test system: rat mesenchymal stem cells; assay: Proliferation of mesenchymal stem cells seeded on PLAGA scaffolds, PicoGreen dsDNA assay; assay type: cell-based; details: each time point, day 7 to day 21
Experimental: FIG. 8. Effect of 6-Bnz-cAMP on the proliferation of rat mesenchymal stem cells seeded on PLAGA scaffolds. Cell proliferation was assessed by PicoGreen dsDNA assay.
Evaluation of the in vitro cellular behaviors of rabbit MSC on the 6-Bnz-cAMP loaded PLAGA microsphere based scaffold: For in vitro studies, cells are plated onto the 6-Bnz-cAMP loaded and unloaded control scaffolds. Cell adhesion is determined at 1, 3, 6 and 24 hours. Cell proliferation levels are determined at Day 3, 7, and 14 (FIG. 8). Cell differentiation and mineralization are determined at Day 7, 14, 21, and 28. At the pre-determined times, scaffolds will be removed from the medium and unattached cells are removed by washing with PBS 4 times. The in vitro assays are performed on the attached cells according to the procedures described above in Example 3.

[5] = test system: rat mesenchymal stem cells; assay: Quantitative calcium levels in mesenchymal stem cells; assay type: cell-based; details: vs control untreated cells and cells supplemented with BMP-2 peptide
Experimental: FIG. 9. Quantitative calcium levels determined in untreated (control) rat mesenchymal stem cells and cells treated with BMP-2 or 6-Bnz-cAMP. Keys: D-BMP-2 peptide; E-6-Bnz-cAMP; F-Control.
Cell adhesion, proliferation, and differentiation studies: Rabbit MSCs are plated onto PLAGA matrices at a plating density of 1×10^4 cells/cm^2 and cultured in standard basal medium. Four experimental groups are tested: (1) untreated cells, (2) 6-Bnz-cAMP treated cells, (3) BMP-2 treated cells, and (4) 6-Bnz-cAMP and BMP-2 treated cells. […] Initial cell adhesion is determined at 1 h, 3 h, 12 h, and 24 h. Cell proliferation and cell differentiation are determined at 1, 7, 14, and 21 days. Calcium deposition and ALP activity is also measured at days 3, 7, 14, and 21 in untreated cells compared to cells treated with BMP-2 or 6-Bnz-cAMP (FIGS. 9 and 10). […] For the cell adhesion assay, attached cells are quantified by crystal violet stain, a method routinely used to measure the initial cell adhesion. Cell proliferation is measured using a commercially available proliferation assay kit, MTS (Promega). For alkaline phosphatase (ALP) activity, the early markers of osteoblast differentiation are determined with a commercially availia ALP assay kit (Bio-rad). […] PCR amplification will be carried out and the resulting products will be analyzed by DNA gel electrophoresis and sequencing. […]

[6] = designed to resist enzymatic degradation in vivo; cited from earlier work

Q: For `O=C(Nc1ncnc2c1ncn2C1O[C@@H]2COP(=O)([O-])O[C@H]2[C@H]1O)c1ccccc1.[Na+]` (stereo partly shown) [6-Bnz-cAMP, N^6-Benzoyladenosine-3′,5′-cyclic monophosphate], which ALP activity [1] is on record?
A: increases ALP activity

Q: What about the calcium deposition [2] of the same compound?
A: further enhanced calcium deposition

Q: What about the ALP activity ([3]; day 7) of the same compound?
A: induced

Q: And the ALP activity ([3]; day 14)?
A: further increased

Q: And the “cell proliferation vs untreated control” value [4]?
A: No significant differences

Q: And the calcium deposition [5]?
A: further enhanced calcium deposition

Q: And the half-life [6]?
A: long half-life

From US20110217337A1, “BIOACTIVE AGENT FOR BONE TISSUE ENGINEERING” (UNIVERSITY OF CONNECTICUT, priority 2010, published 2011)
